Patent publication US12090164B2, “Genotype-agnostic rescue of cystic fibrosis with small molecule bicarbonate channels” (The Board of Trustees of the University of Illinois, priority 2017, dated 2024)
Entries after “also recorded” stand apart in the source; their conditions may differ.

What was measured:
[1] = tested on: CuFi-1 (ΔF508/ΔF508) epithelia; experiment: Basolateral to apical H14CO3- transport; assay type: cell-based, human
Procedure: (§1) Small diameter NuLi and CuFi cultured epithelia were used for this experiment (0.33 cm^2). ^14C-labeled sodium HCO3^− was obtained as a sterile 35.7 mM aqueous solution pH 9.5 (MP Biomedicals 0117441H). All experiments were run less than 2 months post seeding. Fresh USG media was added to the basolateral side prior to experimentation. The apical membrane was treated with 20 μL of vehicle, AmB, or ivacaftor/forskolin as a suspension in perfluorocarbon-72 (Sigma Aldrich), and the cultured epithelia were incubated for 48 hours, 7 days, 14 days, or 28 days at 37° C. in a 5% C02 atmosphere. After the end of the treatment period, 5 μL of a 1.4 mM H^14CO3^− stock solution in USG media was added to the basolateral media. The cultured epithelia were then incubated at 37° C. for 10 minutes. After 10 minutes, the apical membrane of the cultured epithelia was immediately washed with 200 μL of PBS. The ASL wash and a 200 μL aliquot of the basolateral media were diluted in scintillation cocktail and analyzed via liquid scintillation counting (23).

[2] = tested on: CuFi-4 (G551D/ΔF508) epithelia; experiment: Basolateral to apical H14CO3- transport; assay type: cell-based, human; conditions: AmB 2 μM, ivacaftor/forskolin 10 μM
Procedure: as §1

[3] = tested on: NuLi (CFTR^+/+) epithelia; experiment: ASL pH in non-CF cultured airway epithelia; assay type: cell-based, human; conditions: apical AmB 2 μM, 48 h
Procedure: (§2) Small diameter NuLi, CuFi, and primary cultured epithelia were used for this experiment (0.33 cm^2). The ratiometric pH indicator SNARF-conjugated dextran (Molecular Probes) was used to measure ASL pH. SNARF powder was suspended via sonication in perfluorocarbon (FC-72, Sigma) and distributed onto the apical surface. ASL pH was measured 2 hr later (3, 4, 25). SNARF was excited at 488 nm and emission was recorded at 580 nm and 640 nm using a Zeiss LSM 800 microscope at 40× water immersion for cell line cultures and a Zeiss LSM 510 microscope for primary cultures. To generate a standard curve for pH determination, SNARF was dissolved in colorless pH standards and fluorescence ratios were converted to pH.
Agents tested in this assay were first lyophilized into powder and then suspended in the appropriate volume of perfluorocarbon (FC-72, Sigma) and sonicated for 1 minute to suspend. AmBisome should not be sonicated; instead, the fine powder was suspended by vortexing.
In all experiments, ASL pH of compound-treated epithelia was measured compared the results to vehicle-treated epithelia.
For apical AmB administration, cultured airway epithelia were incubated for 30 min-48 hrs at 37° C. before measurement of ASL pH. For AmB-cholesterol complex and C35deOAmB administration, cultured airway epithelia were incubated for 48 hrs at 37° C. before measurement of ASL pH. […]

[4] = tested on: CuFi-1 epithelial monolayers; experiment: pH-stat titration of apical alkalinization; assay type: cell-based, human; conditions: AmB 0.5, 1, 2 μM
Procedure: Large diameter NuLi and CuFi-1 cultured epithelia were used for this experiment (4.67 cm^2). These cultures were mounted in a dual-channel Ussing chamber (Warner U2500) using the culture cup insert for Transwell adapter, 24 mm (U9924T-24). The membranes were bathed at 37° C. on the apical side with a buffer-free solution (140 mM NaCl, 2 mM KCl, 2 mM CaCl2), and 1 mM MgCl2, 15 mM dextrose, gassed with air) and on the basolateral side with either a HCO3^− buffer (120 mM NaCl, 25 mM NaHCO3, 5 mM KCl, 2 mM CaC2, 1.2 mM MgCl2, 13.75 NaH2PO4, 5.6 mM dextrose, pH adjusted to 7.0) or a HCO3^−-free buffer (140 mM NaCl, 2 mM KCl, 2 mM CaCl2), 1 mM MgCl2, 10 mM HEPES, 5 mM dextrose, pH adjusted to 7.0). A microdiameter pH electrode (89231-590) and temperature probe (Radiometer Analytical T201 Temperature Sensor, E51M001) and titration burette attached to a Hach TIM856 NB pH/EP/Stat pH-STAT Titrator (R41T028) were inserted into the apical chamber. The basolateral chamber was covered with the chamber lid to prevent gas exchange. […]
The apical pH was titrated to a target pH of 6.0 using 1 mM HCl as titrant (min speed 0.25 mL/min, max speed 0.35 mL/min) (28, 57-59). Acid titration was measured over 20 minutes to establish a baseline value for the cultured epithelia […]. […] Acid titration was then measured over another 20 minutes to evaluate AmB-mediated pH change in the apical solution. […]

[5] = tested on: yeast; conditions: cited from earlier work
[6] = tested on: non-CF primary cultured epithelia; experiment: ASL pH in non-CF primary cultured epithelia; assay type: cell-based, human; conditions: AmB 2 μM, 48 h
Procedure: Airway epithelial cells were obtained from human trachea and bronchi of CF and non-CF specimens obtained from the Iowa Donor Network, either as post-mortem specimens or from tissue deemed not fit for transplant. Studies were approved by the University of Iowa Institutional Review Board. After pronase enzymatic digestion, cells were seeded onto collagen-coated semi-permeable membranes (0.33-1.12 cm^2, Corning 3470 polyester, 3460 polyester, 3413 polycarbonate) and grown at an air-liquid interface (52). Airway epithelial cell cultures were analyzed after they had differentiated and at least 14 days post-seeding.
as §2, with “pH. […]” for “pH. SNARF powder was suspended via sonication in perfluorocarbon (FC-72, Sigma) and distributed onto the apical surface.”, “pH. […]” for “pH.”
In all experiments, ASL pH of compound-treated epithelia was measured compared the results to vehicle-treated epithelia. […]

C[C@@H]1[C@H](O)[C@@H](C)/C=C/C=C/C=C/C=C/C=C/C=C/C=C/[C@H](O[C@@H]2O[C@H](C)[C@@H](O)[C@H](N)[C@@H]2O)C[C@@H]2O[C@](O)(C[C@@H](O)C[C@@H](O)[C@H](O)CC[C@@H](O)C[C@@H](O)CC(=O)O[C@H]1C)C[C@H](O)[C@H]2C(=O)O [AmB, amphotericin B]
time for which increase in H^14CO3^− secretion is sustained ([1]; AmB 2 μM left on epithelia): at least 7 days
basolateral to apical H^14CO3^− transport, apical addition ([1]; over 10 minutes, AmB or C35deOAmB 2 μM, ivacaftor/forskolin 10 μM): restored normal bicarbonate transport; also recorded: increased the rate of ^14C bicarbonate to match that observed in NuLi epithelia; also recorded: effective in both genotypes; also recorded: increased both
H^14CO3^− transepithelial transport [2]: increase H^14CO3-transepithelial transport; also recorded: effective in both genotypes; also recorded: the same increase in rate of bicarbonate efflux; also recorded: increased ASL pH and H^14CO3^− secretion
ASL pH in non-CF epithelia [3]: No increase in ASL pH was observed
rate of apical alkalinization, bicarbonate free basolateral buffer ([4]; HCO3−-free buffer): no change in rate of apical alkalinization was observed with any tested concentration of AmB; also recorded: not in the absence of basolateral bicarbonate
rate of apical chamber alkalinization, basolateral bicarbonate present ([4]; basolateral bicarbonate 25 mM): increased the rate of apical chamber alkalization of CuFi-1 epithelia in a dose-dependent fashion; also recorded: dose-dependent increase in ASL pH
toxicity / fungicidal activity to yeast [5]: highly toxic to yeast
ASL pH of non-CF primary epithelia [6]: had no effect on the pH of non-CF primary cultured epithelia
